Assays:
several fungi = conditions: PRN spraying in field tests; U.S. Pat. No. 5,698,425; cited from earlier work
tomato plants = assay: Vector replication, spread, reporter expression and symptoms in tomato plants (PCR, GUS staining); type: in vivo
Method: Propagation of the virus-plasmid vectors and their administration to plants—E. coli cells were transformed with IL-60 (SEQ ID NO: 2), IL-60-BS (SEQ ID NO: 1), IL-60-BS-GUS and IL-60-BS-GFP and propagated under ampicillin selection; the construct was extracted using standard procedures. IL-60-BS was administered directly into plants, without mediation by Agrobacterium. The stem, or leaf petiole, of the recipient plant was punctured by a hypodermic needle. A capillary tube was inserted into the resultant hole, and approximately 2 microgram of DNA (in 100 μl of 5 mM Tris-HCl; pH 8.5) were pipetted into the capillary tube until fully soaked by the plant. For large-scale applications, samples were delivered into plants by the BIM-LAB instrument (Bio-OZ biotechnologies, Yad Mordechai, Israel).
PCR analysis—PCR analysis was carried out according to standard procedures. DNA for PCR analysis was extracted as described in Bernatzky R. and Tanksley, S. D. [Theor. Appl. Genet. 72:314-321 (1986)], from leaves positioned at least 3 leaves above the point of administration. Tomato plants carry Geminivirus sequences in their genome [Ashby, M. K. et al., Plant Mol. Biol. 35, 313-321 (1997)]. Thus, it was also necessary to ascertain that PCR products were obtained from vector templates and not from native viral infection or plant sequences. Therefore, PCR tests were carried out with primers distinguishing IL-60 from TYLCV, or spanning the junction between IL-60 and the plasmid. • (i) primers distinguishing IL-60 from TYLCV; 977 (forward): gaa ggc tga act tcg aca g (SEQ ID NO: 16), 966 (reverse): att ggg ctg ttt cca tag ggc (SEQ ID NO: 17) • (ii) primers which amplify the junction between Bluescript and IL-60; 939 (forward) aga gac acc gat tca ttt caa c (SEQ ID NO: 18); 940 (reverse) gcg gat aac aat ttc aca cag (SEQ ID NO: 19).
In order to detect the presence of plasmids carrying reporter genes, PCR was performed with primers amplifying the reporter gene inserted into IL-60-BS. • iii) GUS specific primers: 408 (forward) gaa caa cga act gaa ctg gca gac (SEQ ID NO: 25); 167 (reverse) cag cgt aag ggt aat gcg ag (SEQ ID NO: 26). • iv) GFP specific primers: 895 (forward) ggc cga att cag taa agg aga ag (SEQ ID NO: 27); 345 (reverse) tgt gtg gac agg taa tgg (SEQ ID NO: 28).
TYLCV, IL-60, IL-60-BS and reporter gene derivative plasmids were either agroinoculated or injected into tomato plants and their replication and spread was monitored with symptom observation, PCR analysis and Southern blot. The expression of viral and reporter genes was assessed using PCR, Northern and Western analysis, GUS staining and GFP fluorescence as described above in methods and materials.

plant genome = assay: Southern blot for integration into the plant genome; type: in vivo, tomato; conditions: BglII-cleaved vs uncleaved DNA
Method: Molecular analysis—Southern analysis was carried out according to standard procedures (e.g as set forth in Sambrook, J. & Russel, D. W. Molecular Cloning, Third Edition. Cold Spring Harbor Laboratory Press, Cold Spring Harbor (2001)). Probes for Southern analysis were labeled by the PCR-DIG procedure (Roche Molecular Biochemicals, Basel, Switzerland). DIG labeled probes (TYLCV-CP—SEQ ID NO: 40) which hybridize with nucleotides 530-908 of the sequence identified by GenBank Accession No. X15656 were prepared according to the manufacturers protocol. Northern and Western analyses were carried out according to standard procedures. Probes for Northern analysis were labeled as described for the Southern blot analysis. Detection of GUS and GFP activities were performed according to published procedures [Jefferson, R. A., EMBO J. 6, 3901-3907 (1987); Blumenthal, A., Plant Science 142, 93-99 (1999)]. Chemiluminescent probes for Western blots were prepared with the SuperSignal West Pico kit (Pierce, Rockford, Ill., USA), using polyclonal antibodies against TYLCV-CP (Bioreba, Reinach, Switzerland) All probes were prepared according to the respective manufacturer's protocol. […]
Southern analysis was done without shearing, and with or without cleaving DNA with BglII. Two major bands were detected in samples from IL-60-BS, as well as TYLCV-infected plants (lanes 3-6, and lane 2 respectively of FIG. 3a). […]

Bemisia tabaci = assay: Transfer of IL-60-BS by Bemisia tabaci; type: in vivo; conditions: insects fed on IL-60-BS-carrying tomato plants, transferred to healthy tomato plants; PCR
From the text: Assay for Transfer of IL-60-BS by Bemisia tabaci—Bemisia tabaci were allowed to feed on IL-60-BS-carrying tomato plants (15 insects per plant). Insects were then fed on sucrose and transferred to healthy tomato plants. DNA was extracted from both types of plants and used as a template for PCR using primers which amplify a sequence specific to IL-60 (e.g. SEQ ID NO: 16 and NO: 17) or other relevant primer pairs.
Wild TYLCV is transmitted by the whitefly, Bemisia tabaci. To test whether the viral vector is also transmitted through a viral natural transmitter, plants carrying the IL-60-BS vector were fed to B. tabaci.

In the case of `O=[N+]([O-])c1c(Cl)cccc1-c1c[nH]cc1Cl` [PRN, Pyrrolnitrin], the “reduction in infectivity of several fungi” value (several fungi) is listed as “up to 8 fold”.
With “IL-60-BS: IL-60 with Bluescript II-KS+ plasmid inserted, interrupting rep and C4 (SEQ ID NO: 1)” the “efficiency of administration into plants” value (tomato plants; direct injection) was “over 90%”, the “symptoms in injected plants” value (tomato plants; more than 64 injected tomato plants) was “did not present any symptom” and the “persistence of vector after injection” value (tomato plants; tomato plants, PCR, duration of the plants life-span) was 12 months. For the same compound, the “vector found / replication indicated by PCR, time post injection” value (tomato plants; tomato plants, leaves remote from the point of injection) was 3 days, the “integration into the plant genome” value (plant genome) was “had not been integrated into the plant's genome” and the “transmission of vector by insects to non-carrying plants” value (Bemisia tabaci) was “did not carry the IL-60-BS vector”.
With “IL-60: TYLCV-derived vector (SEQ ID NO: 2) with 60-nt coat protein deletion and frame shift” the infection after agroinoculation (tomato plants; tomato plants agroinoculated with the multimeric form, kept until fruit set) was “systemic, but symptomless infection”.
